In US7238864B2, “Acetolactate synthase gene promoter” (priority 2004, dated 2007):

Experiments:
ALS [1] = target: T1, ALS (Oryza sativa subsp. japonica, UniProt Q6K2E8); assay: in vivo ALS assay on cut rice leaves (red colour development); format: cell-based; details: wild-type rice leaves, 0.15 μM (final concentration) BS, 30 °C under light for 1 day
T1 construct: 150 mg of leaves were sampled, finely cut, and then put into a petri dish; from tissue; host or cells: rice leaves (wild-type plants)
T1 sequence (Q6K2E8 44-644): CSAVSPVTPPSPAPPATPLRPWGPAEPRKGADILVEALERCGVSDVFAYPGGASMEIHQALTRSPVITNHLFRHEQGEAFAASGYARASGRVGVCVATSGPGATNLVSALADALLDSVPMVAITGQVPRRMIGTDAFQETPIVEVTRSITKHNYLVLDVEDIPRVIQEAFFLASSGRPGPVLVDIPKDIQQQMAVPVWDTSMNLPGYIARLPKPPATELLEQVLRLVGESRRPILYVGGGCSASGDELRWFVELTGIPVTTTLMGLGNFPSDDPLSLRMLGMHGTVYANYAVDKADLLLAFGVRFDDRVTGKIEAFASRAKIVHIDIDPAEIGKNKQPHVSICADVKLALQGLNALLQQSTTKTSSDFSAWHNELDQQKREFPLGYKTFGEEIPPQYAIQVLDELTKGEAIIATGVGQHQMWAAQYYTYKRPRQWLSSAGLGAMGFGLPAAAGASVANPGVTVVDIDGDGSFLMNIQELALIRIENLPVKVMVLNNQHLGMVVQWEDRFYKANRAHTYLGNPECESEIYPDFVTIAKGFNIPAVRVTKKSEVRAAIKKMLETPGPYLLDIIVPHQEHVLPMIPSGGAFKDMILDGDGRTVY
Method: (§1) A treatment solution (mixed salts for 25% MS media; 500 μM (final concentration) 1,1-cyclopropanedicarboxilic acid (CPCA); 5 μg Triton X-100; and 0.15 μM (final concentration) BS) was added to the dish, and the resultant was allowed to stand at 30 ° C. under light conditions (140001×) for 1 day. After reaction, the treated leaves were put into a 1.5 ml micro tube and then 200 μl of distilled water containing 0.025% Triton X-100 was added thereto. After the solution had been allowed to stand at 60° C. for 5 minutes, extraction was carried out with sonication (frequency of 40 kHz) for 15 minutes. 200 μl of the supernatant was transferred into another tube, 20 μl of 5% (v/v) sulfuric acid was added thereto, and then the resultant was allowed to stand at 60° C. for 30 minutes. Subsequently, 100 μl of a 0.5% (w/v) creatine and 100 μl of a 5% (w/v) 1-naphthol (prepared at the time of use) dissolved in a 2.5 N NaOH solution were added to the solution. The solution was allowed to stand at 37° C. for 30 minutes. […] It is understood that in the case of wild-type rice, the ALS gene was inhibited by addition of BS so that a red color was not developed.

ALS [2] = target: T2, ALS (Oryza sativa subsp. japonica, UniProt Q6K2E8, S627I/W548L); assay: as above; format: cell-based; details: leaves of rice with the ALS-promoter-driven BS-resistance (two-point mutated) ALS gene, 0.15 μM BS, 30 °C under light for 1 day
T2 construct: 150 mg of leaves were sampled, finely cut, and then put into a petri dish; from tissue; host or cells: rice leaves (wild-type plants)
T2 sequence (Q6K2E8 44-644 W548L/S627I): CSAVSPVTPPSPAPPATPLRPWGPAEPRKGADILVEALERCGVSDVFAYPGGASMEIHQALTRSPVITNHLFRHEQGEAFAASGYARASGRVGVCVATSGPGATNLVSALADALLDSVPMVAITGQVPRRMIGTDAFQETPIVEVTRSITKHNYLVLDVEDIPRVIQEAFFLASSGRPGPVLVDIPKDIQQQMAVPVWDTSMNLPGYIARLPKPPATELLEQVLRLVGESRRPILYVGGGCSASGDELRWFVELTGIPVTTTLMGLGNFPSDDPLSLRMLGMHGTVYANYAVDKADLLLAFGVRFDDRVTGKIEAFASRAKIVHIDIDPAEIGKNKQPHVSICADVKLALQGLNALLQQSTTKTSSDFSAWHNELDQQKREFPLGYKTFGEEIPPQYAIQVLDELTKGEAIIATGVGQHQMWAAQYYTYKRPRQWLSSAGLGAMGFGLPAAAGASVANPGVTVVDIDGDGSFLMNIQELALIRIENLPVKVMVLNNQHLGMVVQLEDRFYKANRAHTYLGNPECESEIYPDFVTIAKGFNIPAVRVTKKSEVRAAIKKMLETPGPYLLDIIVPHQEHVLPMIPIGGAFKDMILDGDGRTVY
Method: as §1

Question: Which “ALS inhibition by addition of BS (red color development)” value (ALS [1]) does the source give for `COc1cc(OC)nc(Oc2cccc(Oc3nc(OC)cc(OC)n3)c2C(=O)[O-])n1.[Na+]` [BS, Bispyribac sodium salt] here?
Answer: The value was “inhibited”.

Question: And the “ALS activity with BS added (red color development)” value (ALS [2])?
Answer: The value was “development of a red color similar to that developed by a group of rice plants to which no BS had been added”.
